From US20260265238A1, “COMPOUNDS AND PHARMACEUTICAL COMPOSITIONS THAT DEGRADE SWI/SNF-RELATED MATRIX-ASSOCIATED ACTIN-DEPENDENT REGULATOR OF CHROMATIN SUBFAMILY A” (Plexium, Inc., priority 2023, published 2026) come the findings set out here.

Assay [1] concerns the target T1, SMARCA4-HiBiT HeLa cells (protein which is expressed from the SMARCA4 gene) (Homo sapiens, UniProt P51532).
T1 construct: protein which is expressed from the SMARCA2 and SMARCA4 genes; host or cells: HeLa (SMARCA4-HiBiT engineered line)
In words: SMARCA4 degradation assay (HiBiT-fusion HeLa cell line, 24 h, luminescence). Type of assay: cell-based. The gist of the method: (§1)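 HiBiT-fusion HeLa lines, 8,000 cells/well, overnight attachment; cpd 10-pt series (typically 10 μM–300 pM), 24 h, 37° C. Lysis with LgBiT + HiBiT substrate, 10 min shaking at RT, luminescence read. DC50 from dose-response fit; % degradation also scored at 1 μM.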
Background: HiBiT is a short tag that completes a luciferase, so light tracks the accessible tagged protein.

Assay [2] deals with T2, SMARCA2-HiBiT HeLa cells (protein which is expressed from the SMARCA2 gene) (Homo sapiens, UniProt P51531).
T2 construct: protein which is expressed from the SMARCA2 and SMARCA4 genes; host or cells: HeLa (SMARCA2-HiBiT engineered line)
In words: SMARCA2 degradation assay (HiBiT-fusion HeLa cell line, 24 h, luminescence). The format is cell-based. The gist of the method: as §1

Usually DC50 stands for the concentration at which degradation of the target reaches its halfway point. Read a low DC50 as degradation at low concentration. The term inhibition denotes the change of the read-out against control, counted positive when it falls. Lower therefore signals a weak effect.

T1 sequence (P51532 whole entry): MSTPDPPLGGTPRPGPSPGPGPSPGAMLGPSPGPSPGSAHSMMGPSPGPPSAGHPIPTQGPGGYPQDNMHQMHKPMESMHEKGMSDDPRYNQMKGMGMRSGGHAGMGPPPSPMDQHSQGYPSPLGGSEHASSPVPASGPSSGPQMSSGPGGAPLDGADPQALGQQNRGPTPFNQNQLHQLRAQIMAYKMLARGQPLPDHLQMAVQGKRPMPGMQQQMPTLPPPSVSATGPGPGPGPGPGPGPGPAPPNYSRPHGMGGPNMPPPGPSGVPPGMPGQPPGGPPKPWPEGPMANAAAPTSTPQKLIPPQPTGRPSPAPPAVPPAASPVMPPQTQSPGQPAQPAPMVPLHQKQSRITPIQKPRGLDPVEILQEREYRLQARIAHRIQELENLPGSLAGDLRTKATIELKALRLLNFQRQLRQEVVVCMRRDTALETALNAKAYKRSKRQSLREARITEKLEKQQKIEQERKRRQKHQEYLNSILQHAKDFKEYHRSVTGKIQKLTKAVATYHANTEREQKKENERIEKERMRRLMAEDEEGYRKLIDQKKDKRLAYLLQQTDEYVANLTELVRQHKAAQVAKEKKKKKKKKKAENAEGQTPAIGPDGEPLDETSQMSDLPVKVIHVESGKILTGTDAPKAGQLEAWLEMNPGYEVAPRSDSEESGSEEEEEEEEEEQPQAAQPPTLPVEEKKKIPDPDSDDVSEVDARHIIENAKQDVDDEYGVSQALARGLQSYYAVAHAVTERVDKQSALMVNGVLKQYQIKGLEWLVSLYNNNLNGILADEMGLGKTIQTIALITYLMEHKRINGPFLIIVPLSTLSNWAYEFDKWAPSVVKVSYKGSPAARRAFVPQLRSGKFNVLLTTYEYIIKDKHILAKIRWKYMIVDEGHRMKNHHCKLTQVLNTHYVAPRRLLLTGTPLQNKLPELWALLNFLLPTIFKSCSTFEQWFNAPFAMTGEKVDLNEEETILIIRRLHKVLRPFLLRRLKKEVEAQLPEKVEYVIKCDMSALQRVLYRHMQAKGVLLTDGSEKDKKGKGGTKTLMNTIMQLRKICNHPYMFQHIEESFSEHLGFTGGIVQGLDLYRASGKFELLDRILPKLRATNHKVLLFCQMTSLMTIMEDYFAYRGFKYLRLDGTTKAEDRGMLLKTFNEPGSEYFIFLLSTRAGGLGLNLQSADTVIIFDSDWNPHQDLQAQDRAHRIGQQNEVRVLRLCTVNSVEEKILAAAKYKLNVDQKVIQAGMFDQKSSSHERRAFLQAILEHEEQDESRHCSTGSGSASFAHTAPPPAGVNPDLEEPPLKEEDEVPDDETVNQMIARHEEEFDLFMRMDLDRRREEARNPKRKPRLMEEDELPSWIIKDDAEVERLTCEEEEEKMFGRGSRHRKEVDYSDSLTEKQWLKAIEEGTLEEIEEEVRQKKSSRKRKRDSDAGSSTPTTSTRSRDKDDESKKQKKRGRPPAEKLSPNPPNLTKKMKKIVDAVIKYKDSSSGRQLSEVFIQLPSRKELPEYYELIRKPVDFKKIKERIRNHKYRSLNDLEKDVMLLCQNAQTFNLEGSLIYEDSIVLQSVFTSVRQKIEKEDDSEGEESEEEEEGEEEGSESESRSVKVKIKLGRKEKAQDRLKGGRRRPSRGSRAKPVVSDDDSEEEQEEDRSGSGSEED
T2 sequence (P51531 whole entry): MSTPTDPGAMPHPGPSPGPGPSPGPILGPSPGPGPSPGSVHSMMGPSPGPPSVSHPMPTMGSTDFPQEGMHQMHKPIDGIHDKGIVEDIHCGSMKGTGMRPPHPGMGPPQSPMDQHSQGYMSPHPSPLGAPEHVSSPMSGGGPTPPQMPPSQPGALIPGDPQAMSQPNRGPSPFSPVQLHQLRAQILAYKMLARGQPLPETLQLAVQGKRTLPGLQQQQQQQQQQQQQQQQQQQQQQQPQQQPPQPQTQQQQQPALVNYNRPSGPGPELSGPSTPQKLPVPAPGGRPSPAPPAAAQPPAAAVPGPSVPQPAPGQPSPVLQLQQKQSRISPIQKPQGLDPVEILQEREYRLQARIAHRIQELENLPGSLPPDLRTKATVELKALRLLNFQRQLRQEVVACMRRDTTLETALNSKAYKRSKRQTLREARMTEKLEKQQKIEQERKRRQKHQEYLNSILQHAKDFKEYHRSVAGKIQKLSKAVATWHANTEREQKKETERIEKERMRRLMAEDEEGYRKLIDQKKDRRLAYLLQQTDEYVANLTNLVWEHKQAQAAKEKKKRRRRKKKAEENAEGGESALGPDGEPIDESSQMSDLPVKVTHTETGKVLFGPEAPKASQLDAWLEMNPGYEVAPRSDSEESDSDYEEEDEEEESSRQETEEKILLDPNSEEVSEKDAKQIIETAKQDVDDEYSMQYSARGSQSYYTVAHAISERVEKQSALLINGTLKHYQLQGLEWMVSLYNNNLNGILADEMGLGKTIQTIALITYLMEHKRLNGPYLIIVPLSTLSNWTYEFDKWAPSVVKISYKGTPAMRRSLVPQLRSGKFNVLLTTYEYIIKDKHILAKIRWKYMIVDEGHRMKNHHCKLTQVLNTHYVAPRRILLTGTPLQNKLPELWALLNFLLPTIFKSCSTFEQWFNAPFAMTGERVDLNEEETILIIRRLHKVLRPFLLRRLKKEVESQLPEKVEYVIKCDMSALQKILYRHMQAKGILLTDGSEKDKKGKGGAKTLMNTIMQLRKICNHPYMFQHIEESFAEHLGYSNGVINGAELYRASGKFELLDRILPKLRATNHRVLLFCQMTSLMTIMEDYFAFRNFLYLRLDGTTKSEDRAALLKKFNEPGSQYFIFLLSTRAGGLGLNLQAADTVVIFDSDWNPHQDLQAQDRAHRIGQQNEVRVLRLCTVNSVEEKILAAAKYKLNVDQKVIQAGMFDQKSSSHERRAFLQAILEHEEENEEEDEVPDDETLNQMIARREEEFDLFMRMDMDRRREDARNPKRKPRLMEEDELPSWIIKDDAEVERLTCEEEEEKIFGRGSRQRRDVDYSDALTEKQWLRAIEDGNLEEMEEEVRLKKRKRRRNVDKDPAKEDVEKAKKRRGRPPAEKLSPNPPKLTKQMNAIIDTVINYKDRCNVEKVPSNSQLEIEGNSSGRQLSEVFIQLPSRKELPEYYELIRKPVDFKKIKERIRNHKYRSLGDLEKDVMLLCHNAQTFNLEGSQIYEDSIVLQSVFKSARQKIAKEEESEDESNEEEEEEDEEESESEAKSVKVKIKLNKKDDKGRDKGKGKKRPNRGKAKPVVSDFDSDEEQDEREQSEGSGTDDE

Regarding `Nc1nnc(-c2ccccc2O)cc1N1CCCN(c2ccnc(C#CCn3cncn3)n2)CC1` [Compound P-148, 2-(5-(4-(2-(3-(1H-1,2,4-triazol-1-yl)prop-1-yn-1-yl)pyrimidin-4-yl)-1,4-diazepan-1-yl)-6-aminopyridazin-3-yl)phenol], in assay [1], the DC50 was 50 to 500 nM and the inhibition at 1 µM lay within 30 to 70%. Also, in assay [2], the DC50 lay within 50 to 500 nM and the “SMARCA2 % Degradation @ 1 μM” value was “+++ (+++=>70%)”.

For `C[C@H]1CN(c2ccnc(C#CCN3CCCCC3)n2)CCN1c1cc(-c2ccccc2O)nnc1N` [Compound P-319, 0-(5-{(S)-2-methyl-4-[2-(3-piperidino-1-propynyl)-4-pyrimidinyl]-1-piperazinyl}-6-amino-3-pyridazinyl)phenol], in assay [1], the DC50 is less than 50 nM and the inhibition at 1 µM is less than 30%. For the same compound, in assay [2], the DC50 was less than 50 nM and the “SMARCA2 % Degradation @ 1 μM” value is reported as “++ (++=30-70%)”.

In assay [1], `Nc1nnc(-c2ccccc2O)cc1N1C[C@H]2C[C@@H]1CN2c1ccnc(C#CCNC(=O)c2cc3ncccn3n2)n1` [Compound P-25, N-(3-(4-((1R,4R)-5-(3-amino-6-(2-hydroxyphenyl)pyridazin-4-yl)-2,5-diazabicyclo[2.2.1]heptan-2-yl)pyrimidin-2-yl)prop-2-yn-1-yl)pyrazolo[1,5-a]pyrimidine-2-carboxamide] gave a DC50 of 50 to 500 nM and an inhibition at 1 µM greater than 70%. In assay [2], the DC50 lay within 50 to 500 nM and the “SMARCA2 % Degradation @ 1 μM” value is given as “+++ (+++=>70%)”.

In assay [1], `CN1C(=O)NC2(CCN(CC#Cc3nccc(N4CCCN(c5cc(-c6ccccc6O)nnc5N)CC4)n3)CC2)C1=O` [Compound P-362, 8-[3-(4-{4-[3-amino-6-(o-hydroxyphenyl)-4-pyridazinyl]-1,4-diazepan-1-yl}-2-pyrimidinyl)-2-propynyl]-3-methyl-1,3,8-triaza-2,4-spiro [4.5]decanedione] gave a DC50 of 500 to 5000 nM and an inhibition at 1 µM of 30 to 70%. In assay [2], the DC50 was 50 to 500 nM and the “SMARCA2 % Degradation @ 1 μM” value is “++ (++=30-70%)”.

In assay [1], `C[C@@H]1CCN(c2cc(-c3ccccc3O)nnc2N)CCN1c1ccnc(C#CCN2[C@H](C)COC[C@@H]2C)n1` [Compound P-260, o-{5-[(R)-4-(2-{3-[(3R,5S)-3,5-dimethyl-4-morpholiny1]-1-propynyl}-4-pyrimidinyl)-5-methyl-1,4-diazepan-1-yl]-6-amino-3-pyridaziny1}phenol] came in with a half-maximal degradation concentration (DC50) of 50 to 500 nM and an inhibition at 1 µM of less than 30%. Further, in assay [2], the DC50 was less than 50 nM and the “SMARCA2 % Degradation @ 1 μM” value is “++ (++=30-70%)”.

In assay [1], `Nc1nnc(-c2ccccc2O)cc1N1CCCN(c2ccnc(C#CCNCCF)n2)CC1` [Compound P-258, o-[6-amino-5-(4-{2-[3-(2-fluoroethylamino)-1-propynyl]-4-pyrimidinyl}-1,4-diazepan-1-yl)-3-pyridazinyl]phenol] yielded a DC50 of 500 to 5000 nM and an inhibition at 1 µM of 30 to 70%. Moreover, in assay [2], the DC50 was 500 to 5000 nM and the “SMARCA2 % Degradation @ 1 μM” value is reported as “++ (++=30-70%)”.

With `Nc1nnc(-c2ccccc2O)cc1N1CCN(c2ccnc(C#CCNC(=O)c3cc4ccc(F)cc4o3)n2)CC1` [Compound P-52, N-(3-(4-(4-(3-amino-6-(2-hydroxyphenyl)pyridazin-4-yl)piperazin-1-yl)pyrimidin-2-yl)prop-2-yn-1-yl)-6-fluorobenzofuran-2-carboxamide], in assay [1], the DC50 was 50 to 500 nM and the inhibition at 1 µM fell in the range of 30 to 70%. In assay [2], the DC50 lay in the range of 50 to 500 nM and the “SMARCA2 % Degradation @ 1 μM” value is reported as “++ (++=30-70%)”.

Turning to `C[C@@H]1CCN(c2cc(-c3ccccc3O)nnc2N)CCN1c1ccnc(C#CCN2CCC(C)(F)C2)n1` (stereo partly drawn) [Compound P-210, o-{5-[(R)-4-{2-[3-(3-fluoro-3-methyl-1-pyrrolidinyl)-1-propynyl]-4-pyrimidinyl}-5-methyl-1,4-diazepan-1-yl]-6-amino-3-pyridaziny1} phenol], in assay [1], the 50% degradation concentration (DC50) is less than 50 nM and the inhibition at 1 µM was in the range of 30 to 70%. For the same compound, in assay [2], the DC50 was less than 50 nM and the “SMARCA2 % Degradation @ 1 μM” value is on record as “++ (++=30-70%)”.

As to `C[C@H]1CCN(c2cc(-c3ccccc3O)nnc2N)CCN1c1ccnc(C#CCN(C)CC(F)(F)F)n1` [Compound P-217, o-{5-[(S)-4-(2-{3-[N-methyl(2,2,2-trifluoroethyl)amino]-1-propynyl}-4-pyrimidinyl)-5-methyl-1,4-diazepan-1-yl]-6-amino-3-pyridaziny1}phenol], in assay [1], the 50% degradation concentration (DC50) is 50 to 500 nM and the inhibition at 1 µM is less than 30%. Moreover, in assay [2], the DC50 was in the range of 50 to 500 nM and the “SMARCA2 % Degradation @ 1 μM” value is on record as “++ (++=30-70%)”.

As for `C[C@@H]1CCN(c2cc(-c3ccccc3O)nnc2N)CCN1c1ccnc(C#CCn2cccc2)n1` [Compound P-191, o-{5-[(R)-5-methyl-4-{2-[3-(1-pyrrolyl)-1-propynyl]-4-pyrimidinyl}-1,4-diazepan-1-yl]-6-amino-3-pyridaziny1}phenol], in assay [1], the DC50 is 50 to 500 nM and the inhibition at 1 µM was in the range of 30 to 70%. Also, in assay [2], the DC50 fell in the range of 50 to 500 nM and the “SMARCA2 % Degradation @ 1 μM” value is on record as “++ (++=30-70%)”.

In assay [1], `Nc1nnc(-c2ccccc2O)cc1N1CCN(c2ccnc(C#CCNC(=O)c3coc4ccccc34)n2)CC1` [Compound P-55, N-(3-(4-(4-(3-amino-6-(2-hydroxyphenyl)pyridazin-4-yl)piperazin-1-yl)pyrimidin-2-yl)prop-2-yn-1-yl)benzofuran-3-carboxamide] registered a 50% degradation concentration (DC50) of 50 to 500 nM and an inhibition at 1 µM of 30 to 70%. Besides, in assay [2], the DC50 lay within 50 to 500 nM and the “SMARCA2 % Degradation @ 1 μM” value is recorded as “++ (++=30-70%)”.

In assay [1], `CCN(CC)CC#Cc1nccc(N2CCN(c3cc(-c4ccccc4O)nnc3N)CC[C@H]2C)n1` [Compound P-202] displayed a DC50 of less than 50 nM and an inhibition at 1 µM of 30 to 70%. For the same compound, in assay [2], the DC50 was less than 50 nM and the “SMARCA2 % Degradation @ 1 μM” value is recorded as “+++ (+++=>70%)”.

Regarding `C[C@@H]1CCN(c2cc(-c3ccccc3O)nnc2N)CCN1c1ccnc(C#CCN(C)CCF)n1` [Compound P-154, o-{5-[(R)-4-(2-{3-[(2-fluoroethyl)-N-methylamino]-1-propynyl}-4-pyrimidinyl)-5-methyl-1,4-diazepan-1-yl]-6-amino-3-pyridaziny1} phenol], in assay [1], the DC50 lay within 50 to 500 nM and the inhibition at 1 µM was less than 30%. For the same compound, in assay [2], the 50% degradation concentration (DC50) lay within 50 to 500 nM and the “SMARCA2 % Degradation @ 1 μM” value was “++ (++=30-70%)”.

In assay [1], `CN(CC#Cc1nccc(N2CCCN(c3cc(-c4ccccc4O)nnc3N)CC2)n1)C(=O)c1cc2ncccn2n1` [Compound P-24, N-(3-(4-(4-(3-amino-6-(2-hydroxyphenyl)pyridazin-4-yl)-1,4-diazepan-1-yl)pyrimidin-2-yl)prop-2-yn-1-yl)-N-methylpyrazolo[1,5-a]pyrimidine-2-carboxamide] came in with a DC50 of less than 50 nM and an inhibition at 1 µM greater than 70%. In addition, in assay [2], the DC50 is less than 50 nM and the “SMARCA2 % Degradation @ 1 μM” value is listed as “+++ (+++=>70%)”.

In assay [1], `Nc1nnc(-c2ccccc2O)cc1N1CCCN(c2ccnc(C#CCO)n2)CC1` [Compound P-125, 2-(6-amino-5-(4-(2-(3-hydroxyprop-1-yn-1-yl)pyrimidin-4-yl)-1,4-diazepan-1-yl)pyridazin-3-yl)phenol] yielded a DC50 of 50 to 500 nM and an inhibition at 1 µM of 30 to 70%. In assay [2], the DC50 fell in the range of 50 to 500 nM and the “SMARCA2 % Degradation @ 1 μM” value was “++ (++=30-70%)”.
